#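 Values below derive from 48-hour exposures of cells grown in 96-well plates, with endpoints linearly interpolated between the two concentrations bracketing the appropriate inhibition level. GI50 marks 50% less growth. TGI denotes the concentration required for complete inhibition of growth.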 The source made the active and inactive calls. Cut-off read from the data, not from the text of the source: active = GI50 below about 0.43 µM; inactive = the rest.
# What was measured:
# Experiment in all cases: NCI anticancer screen, dose series, 48 h
# NCI-H23 lung = tested on: NCI-H23 lung
# SR leukemia = tested on: SR leukemia
# SF-295 CNS = tested on: SF-295 CNS
# HOP-92 NSCLC = tested on: HOP-92 NSCLC
# SK-MEL-5 melanoma = tested on: SK-MEL-5 melanoma
# OVCAR-4 ovarian = tested on: OVCAR-4 ovarian
# SN12C renal = tested on: SN12C renal
# NCI-H522 lung = tested on: NCI-H522 lung
# COLO 205 colon = tested on: COLO 205 colon
SMILES,GI50 (NCI-H23 lung),TGI (NCI-H23 lung),GI50 (SR leukemia),TGI (SR leukemia),TGI (SF-295 CNS),outcome (SF-295 CNS),GI50 (HOP-92 NSCLC),GI50 (SK-MEL-5 melanoma),TGI (OVCAR-4 ovarian),outcome (OVCAR-4 ovarian),TGI (SN12C renal),GI50 (NCI-H522 lung),TGI (COLO 205 colon),GI50 (SF-295 CNS),TGI (HOP-92 NSCLC),TGI (SK-MEL-5 melanoma),GI50 (OVCAR-4 ovarian),GI50 (SN12C renal),TGI (NCI-H522 lung),GI50 (COLO 205 colon)
COc1ccc(C(=O)C#Cc2cnc(OC)nc2OC)cc1,35000 µM,3.08 µM,12500 µM,43100 µM,24.8 µM,inactive,19700 µM,25600 µM,94.4 µM,inactive,2.63 µM,12700 µM,42100 µM,,,,,,,
Cc1ccc(C(=O)N(CCCN)C(c2oc3cc(Cl)ccc3c(=O)c2Cc2ccccc2)C(C)C)cc1 (stereo unspecified),< 0.01 µM,1.61 µM,< 0.01 µM,1.86 µM,1.48 µM,,< 0.01 µM,< 0.01 µM,2.47 µM,,2.07 µM,< 0.01 µM,0.595 µM,< 0.01 µM,1.76 µM,1.68 µM,0.899 µM,< 0.01 µM,< 0.01 µM,< 0.01 µM
Cn1c2ccccc2c2ccc3c(c21)C(=O)c1ccccc1C3=O,,33.5 µM,,13.9 µM,42 µM,,,,69.7 µM,,73.1 µM,,82 µM,,54.2 µM,30.2 µM,,,29.6 µM,
Nc1nc(N(Cc2ccccc2)c2ccccc2)c2cn[nH]c2n1,6.06 µM,> 100 µM,1.3 µM,5.64 µM,62.4 µM,,1.42 µM,3.04 µM,> 100 µM,,> 100 µM,2.62 µM,> 100 µM,2.87 µM,> 100 µM,> 100 µM,6.37 µM,5.71 µM,> 100 µM,2.9 µM
Nc1nc2c(nnn2C2CC(O)C(CO)O2)c(=O)[nH]1 (stereo unspecified),4.61 µM,> 100 µM,2.54 µM,> 76.2 µM,> 56.3 µM,,1.62 µM,14.7 µM,> 100 µM,,> 100 µM,3.81 µM,6.3 µM,2.54 µM,51.1 µM,> 89 µM,11.5 µM,5.44 µM,> 100 µM,1.89 µM
COC(=O)Nc1nc2ccc(Oc3ccc(NC(=O)Nc4cc(C(F)(F)F)ccc4F)cc3)cc2s1,9.25 µM,> 25 µM,5.66 µM,> 25 µM,> 25 µM,,0.288 µM,> 25 µM,> 20.2 µM,,> 25 µM,> 25 µM,> 25 µM,24.8 µM,> 25 µM,> 25 µM,7.24 µM,> 17.3 µM,> 25 µM,> 25 µM
CS(=O)(=O)CCNCc1ccc(-c2ccc3ncnc(Nc4ccc(OCc5ccccc5)cc4)c3c2)o1,8.57 µM,> 25 µM,5.06 µM,> 19.9 µM,10.8 µM,,3.13 µM,3.72 µM,> 25 µM,,> 25 µM,3.32 µM,11.4 µM,4.89 µM,14.1 µM,7.11 µM,11.1 µM,5.87 µM,10.4 µM,5 µM
O=c1cc(-c2ccccc2)oc2cc(OC/C(=N/O)c3ccccc3)ccc12,22.6 µM,> 50 µM,31.8 µM,> 50 µM,23.4 µM,,13.8 µM,20.7 µM,> 50 µM,,44.6 µM,9.61 µM,> 50 µM,6 µM,> 50 µM,> 50 µM,30.5 µM,10.9 µM,> 50 µM,> 50 µM
C[N+]1=C(/C=C/c2ccc(O)c3ncccc23)C(C)(C)c2ccccc21,2.62 µM,8.54 µM,2.13 µM,15 µM,5.24 µM,,2.22 µM,2.26 µM,17.2 µM,,10.4 µM,2.83 µM,6.11 µM,2.21 µM,7.67 µM,5.71 µM,3.12 µM,2.82 µM,11.6 µM,2.3 µM
CCOC(=O)/C(=C\c1ccccc1)C(=O)O,,> 100 µM,,> 100 µM,> 100 µM,,,,> 100 µM,,> 100 µM,,> 100 µM,,> 100 µM,> 100 µM,,,> 100 µM,
CCOCC(=O)N[C@H]1CCc2cc(OC)c(OC)c(OC)c2-c2ccc(OC)c(=O)cc21,,0.178 µM,,> 100 µM,0.379 µM,,,,> 100 µM,,> 100 µM,,0.0205 µM,,7.24 µM,0.36 µM,,,0.0768 µM,
